We go through six compounds from patent US4229443A, “Derivatives of penicillanic acid” (Leo Pharmaceutical Products, Ltd. A/S, priority 1976, dated 1980).

Values after ≈ are worked out from the molar mass of the structure shown. Counter-ions that a name gives are not always drawn.

Type in all cases: cell-based
Test [1] concerns Salmonella typhimurium NCTC 5710. Nature of the test: Antibacterial activity, 50% inhibition of growth, Salmonella typhimurium NCTC 5710. Conditions: Salmonella enterica, read-out: IC50 (concentration required for a 50% inhibition of growth). From the text: (§1) In the table below the antibacterial activity of the compound of Example 1, the 6-[4'-(3"-aminopropyl)-1'-piperidyl-methyleneamino]penicillanic acid hydrochloride, in the table called EB 686, is compared to that of the known compounds Ampicillin and Mecillinam (a compound of the above mentioned British Pat. No. 1,293,590).
(§2) *IC50 means the concentration required for a 50% inhibition of […]

In test [2] the test system is Enterobacter cloacae P 99. Nature of the test: Antibacterial activity, 50% inhibition of growth, Enterobacter cloacae P 99. Conditions: P99, read-out: IC50 (concentration required for a 50% inhibition of growth).
Source text: as §1, §2

The subject of a further test is E.coli W3110 (RTEM). Nature of the test: Antibacterial activity, 50% inhibition of growth, E.coli W3110 (RTEM). As to conditions: Escherichia coli, read-out: IC50 (concentration required for a 50% inhibition of growth).
Source text: as §1, §2

The test system of test [3] is Salmonella cholerasuis NCTC 5735. The test is described as follows: Antibacterial activity, 50% inhibition of growth, Salmonella cholerasuis NCTC 5735. Conditions: NCTC5735, read-out: IC50 (concentration required for a 50% inhibition of growth).
Source text: as §1, §2

In test [4] the test system is Pseudomonas aeruginosa BA 2 Leo strain. Nature of the test: Antibacterial activity, 50% inhibition of growth, Pseudomonas aeruginosa BA 2 Leo strain. As to conditions: BA2LEOSTRAIN, read-out: IC50 (concentration required for a 50% inhibition of growth).
Source text: as §1, §2

The test system of a further test is E.coli HA 2 Leo strain. Nature of the test: Antibacterial activity, 50% inhibition of growth, E.coli HA 2 Leo strain. Conditions: Escherichia coli, HA2LEOSTRAIN, read-out: IC50 (concentration required for a 50% inhibition of growth).
Source text: as §1, §2

The test system of test [5] is Pseudomonas aeruginosa PS 18s. Nature of the test: Antibacterial activity, 50% inhibition of growth, Pseudomonas aeruginosa PS 18s. As to conditions: PS18S, read-out: IC50 (concentration required for a 50% inhibition of growth).
Source text: as §1, §2

Test [6] deals with Klebsiella pneumoniae AT CC 10273. The test is described as follows: Antibacterial activity, 50% inhibition of growth, Klebsiella pneumoniae AT CC 10273. As to conditions: ATCC10273, read-out: IC50 (concentration required for a 50% inhibition of growth).
Source text: as §1, §2

As to `CC1(C)S[C@@H]2[C@H](NC(=O)[C@H](N)c3ccccc3)C(=O)N2[C@H]1C(=O)O` [Ampicillin], the IC50 was 0.4 µg/mL (≈ 1.14 µM) in test [1]; over 100 µg/mL in test [2]; over 100 µg/mL with E.coli W3110 (RTEM); 0.25 µg/mL (≈ 0.715 µM) in test [3]; over 100 µg/mL in test [4]; 1.3 µg/mL (≈ 3.72 µM) in the test with E.coli HA 2 Leo strain. The values for the IC50 in test [5] and in test [6] were 50 µg/mL (≈ 143 µM) and 79 µg/mL (≈ 226 µM), respectively.

As for `CC1(C)S[C@@H]2[C@H](N=CN3CCC(CCCN)CC3)C(=O)N2[C@H]1C(=O)O` [EB 686, 6-[4'-(3"-aminopropyl)-1'-piperidyl-methyleneamino]-penicillanic acid monohydrochloride], the IC50 came out at 0.016 µg/mL in test [1]; 0.02 µg/mL in test [2]; 0.5 µg/mL in the test on E.coli W3110 (RTEM); 0.0063 µg/mL in test [3]; 16 µg/mL in test [4]; 0.016 µg/mL with E.coli HA 2 Leo strain. Further, the IC50 was 5 µg/mL in test [5] and 0.04 µg/mL in test [6].

As for `CC1(C)S[C@@H]2[C@H](N=CN3CCC(CCCN=[N+]=[N-])CC3)C(=O)N2[C@H]1C(=O)O` [Example 1D, 6-[4'-(3"-azidopropyl)-1'-piperidyl-methyleneamino]-penicillanic acid], the IC50 in test [1] is 0.5 µg/mL (≈ 1.27 µM); in the test on E.coli HA 2 Leo strain, 0.04 µg/mL (≈ 0.101 µM).

On to `CC1(C)S[C@@H]2[C@H](N=CN3CCC(CN=[N+]=[N-])CC3)C(=O)N2[C@H]1C(=O)O` [Example 2D, 6-[4'-azidomethyl-1'-piperidyl-methyleneamino]-penicillanic acid], for which the IC50 in test [1] stood at 0.2 µg/mL (≈ 0.546 µM); in the test with E.coli HA 2 Leo strain it was 0.05 µg/mL (≈ 0.136 µM).

In the case of `CC(C)(C)C(=O)OCOC(=O)[C@@H]1N2C(=O)[C@@H](N=CN3CCCC(C(CN)CN)CC3)[C@H]2SC1(C)C` (stereo partly shown) [Example 28F, Pivaloyloxymethyl 6-[(4'-(1",3"-diaminopropyl-2")-hexahydro-1'H-azepin-1'-yl)-methyleneamino]-penicillanate, trihydrochloride], the figures for the IC50 (in test [1]; in test [4]; with E.coli HA 2 Leo strain) were 0.05 µg/mL, 20 µg/mL and 0.05 µg/mL, respectively.

On to `CC1(C)S[C@@H]2[C@H](/N=C/N3CCCCCC3)C(=O)N2[C@H]1C(=O)O` [Mecillinam], for which the IC50 in test [1] is 0.05 µg/mL (≈ 0.154 µM); in test [2], 0.1 µg/mL (≈ 0.307 µM); in the test on E.coli W3110 (RTEM), 2 µg/mL (≈ 6.15 µM); in test [3], 0.05 µg/mL (≈ 0.154 µM); in test [4] it was over 100 µg/mL; in the test with E.coli HA 2 Leo strain, 0.016 µg/mL (≈ 0.0492 µM). The figures for the IC50 in test [5] and in test [6] were over 100 µg/mL and about 1 µg/mL (≈ 3.07 µM), respectively.
